No end group written: not given here.
Tests used:
[1] = target: T1, LCAT (purified from human plasma) (Homo sapiens, UniProt P04180); experiment: LCAT activation assay; format: biochemical; settings: LCAT activation as compared with native human ApoA-I (= 100%), equivalent masses
T1 construct: from tissue; host or cells: human plasma
T1 sequence (P04180 25-440): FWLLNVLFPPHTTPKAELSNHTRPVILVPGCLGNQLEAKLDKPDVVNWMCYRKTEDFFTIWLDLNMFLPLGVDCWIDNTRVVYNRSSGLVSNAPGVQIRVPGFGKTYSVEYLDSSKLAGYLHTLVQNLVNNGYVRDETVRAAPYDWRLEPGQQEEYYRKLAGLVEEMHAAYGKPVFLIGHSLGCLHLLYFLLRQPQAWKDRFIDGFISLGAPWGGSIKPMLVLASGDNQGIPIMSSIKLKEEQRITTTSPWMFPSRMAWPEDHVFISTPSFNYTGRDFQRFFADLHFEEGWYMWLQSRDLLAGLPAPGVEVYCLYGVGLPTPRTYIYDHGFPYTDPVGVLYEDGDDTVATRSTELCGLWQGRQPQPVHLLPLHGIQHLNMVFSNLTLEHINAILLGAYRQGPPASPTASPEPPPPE
In short: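 Activity was expressed as percentage conversion of radiolabelled cholesterol to cholesteryl ester, normalised to native ApoA-I as 100%. LCAT purified from human plasma was added to peptide-preincubated EPC or POPC/cholesterol (20:1) small unilamellar vesicles at pH 7.4. Specific activity is the peptide concentration reaching the conversion plateau at a fixed timepoint.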

[2] = Circular dichroism helicity determination; format: physicochemical; settings: percent helicity; for He (%) TFE: 5 μM peptide, 90% vol TFE; for He (%) free: unbound peptide 5 μM in 5 mM phosphate buffer, pH 7.4, 37° C.; for He (%) mics: peptide-micelle complexes, Ri=100, 37° C.
In short: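 Far-UV CD (190–260 nm) at 37° C on 5 μM peptide in 5 mM phosphate pH 7.4, free, with EPC:Chol 20:1 SUVs (Ri 30 or 50), lysophosphatidylcholine micelles (Ri 100) or 90% TFE. Spectra converted to molar ellipticity per residue; helicity from 222 nm ellipticity or CONTIN fitting to reference spectra, ±5%.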

Sequence | ACTIVITY (%) LCAT [1] | He (%) TFE ([2]; 37° C.) | He (%) free [2] | He (%) mics [2] | He (%) SUVs ([2]; peptide-SUV complexes (20:1 EPC:Chol., Ri=30 and Ri=50), 37° C.)
PVLELFENLWERLLDALQKKLK [peptide 149] | 63% | 47% | 28% | 54% | –
PVLELFENLLERLLDALQKKLK [peptide 146] | 86% | 95% | 97% | 100% | 100%

— patent US7273848B2, “Apolipoprotein A-I agonists and their use to treat dyslipidemic disorders” (priority 1997, dated 2007)
